Tests used:
[1] = test system: Fusarium culmorum; assay: microbe, parasite or virus in culture; type: cell-based; details: read-out: control of Fusarium culmorum
[2] = test system: Glomerella lagenarium (Colletotrichum lagenarium); assay: Glomerella lagenarium (Colletotrichum lagenarium) / liquid culture (anthracnose); type: cell-based; details: Colletotrichum orbiculare, compared to untreated control, growth inhibition measured photometrically 3-4 days after application
[3] = test system: Magnaporthe grisea (Pyricularia oryzae); assay: microbe, parasite or virus in culture; type: cell-based; details: read-out: control of Magnaporthe grisea
[4] = test system: Monographella nivalis (Microdochium nivale); assay: Monographella nivalis (Microdochium nivale) / liquid culture (foot rot cereals); type: cell-based; details: compared to untreated control, growth inhibition determined photometrically 4-5 days after application
[5] = test system: Mycosphaerella graminicola (Septoria tritici); assay: Mycosphaerella graminicola (Septoria tritici) / liquid culture (Septoria blotch); type: cell-based; details: Zymoseptoria tritici, compared to untreated control, growth inhibition determined photometrically 4-5 days after application
[6] = test system: Botryotinia fuckeliana (Botrytis cinerea); assay: Botryotinia fuckeliana (Botrytis cinerea) / liquid culture (gray mould); type: cell-based; details: 72 h, compared to untreated control, growth inhibition determined photometrically 3-4 days after application
[7] = test system: Sclerotinia sclerotiorum; assay: microbe, parasite or virus in culture; type: cell-based; details: read-out: control of Sclerotinia sclerotiorum
[8] = test system: Mycosphaerella graminicola (Septoria tritici); assay: Mycosphaerella graminicola (Septoria tritici) on wheat / preventative; type: in vivo; details: Zymoseptoria tritici, wheat plants sprayed, inoculated one day after application, assessed 16-19 days after application vs untreated control

Question: Which inhibition of growth at 20 ppm [1] does the source give for `CC1(Cc2ccccc2)CC(C)(C)SC(c2cnc3c(F)cccc3c2)=N1` (centres unmarked) [E-7, 4-benzyl-2-(8-fluoro-3-quinolyl)-4,6,6-trimethyl-5H-1,3-thiazine] here?
Answer: ≥ 80%

Question: And the inhibition of growth at 20 ppm [2]?
Answer: ≥ 80%

Question: What about the inhibition of growth at 20 ppm [3] of the same compound?
Answer: ≥ 80%

Question: And the inhibition of growth at 20 ppm [4]?
Answer: ≥ 80%

Question: And the inhibition of growth at 20 ppm [5]?
Answer: ≥ 70%

Question: And the inhibition of growth at 20 ppm [6]?
Answer: ≥ 80%

Question: What about the inhibition of growth at 20 ppm [7] of the same compound?
Answer: ≥ 80%

Question: For `CCC1(C)CC(C)(Cc2ccccc2)N=C(c2cnc3c(F)cccc3c2)O1` (centres unmarked) [E-9, 4-benzyl-6-ethyl-2-(8-fluoro-3-quinolyl)-4,6-dimethyl-5H-1,3-oxazine], which inhibition of growth at 20 ppm [1] is on record?
Answer: ≥ 80%

Question: What about the inhibition of growth at 20 ppm [2] of the same compound?
Answer: ≥ 80%

Question: And the inhibition of growth at 20 ppm [3]?
Answer: ≥ 80%

Question: And the inhibition of growth at 20 ppm [4]?
Answer: ≥ 80%

Question: What about the inhibition of growth at 20 ppm [5] of the same compound?
Answer: ≥ 70%

Question: What about the inhibition of growth at 20 ppm [6] of the same compound?
Answer: ≥ 80%

Question: And the inhibition of growth at 20 ppm [7]?
Answer: ≥ 80%

Question: With `C[C@@]1(Cc2ccccc2)C[C@@](C)(CCl)OC(c2cnc3c(F)cccc3c2)=N1` [E-10, (4R,6S)-4-benzyl-6-(chloromethyl)-2-(8-fluoro-3-quinolyl)-4,6-dimethyl-5H-1,3-oxazine] as the compound, how does the inhibition of growth at 20 ppm [1] read?
Answer: ≥ 80%

Question: What about the inhibition of growth at 20 ppm [2] of the same compound?
Answer: ≥ 80%

Question: And the inhibition of growth at 20 ppm [3]?
Answer: ≥ 80%

Question: What about the inhibition of growth at 20 ppm [4] of the same compound?
Answer: ≥ 80%

Question: What about the inhibition of growth at 20 ppm [5] of the same compound?
Answer: ≥ 70%

Question: What about the inhibition of growth at 20 ppm [6] of the same compound?
Answer: ≥ 80%

Question: What about the inhibition of growth at 20 ppm [7] of the same compound?
Answer: ≥ 80%

Question: And the melting point?
Answer: 125 to 130 °C

Question: Which results are given for `C[C@@]1(Cc2ccccc2)C[C@](C)(CCl)OC(c2cnc3c(F)cccc3c2)=N1` [E-11, (4R,6R)-4-benzyl-6-(chloromethyl)-2-(8-fluoro-3-quinolyl)-4,6-dimethyl-5H-1,3-oxazine]?
Answer: inhibition of growth at 20 ppm [1]: ≥ 80%; inhibition of growth at 20 ppm [2]: ≥ 80%; inhibition of growth at 20 ppm [3]: ≥ 80%; inhibition of growth at 20 ppm [4]: ≥ 80%; inhibition of growth at 20 ppm [5]: ≥ 70%; inhibition of growth at 20 ppm [6]: ≥ 80%

Question: Which inhibition of growth at 20 ppm [1] does the source give for `CC1(C)CC(Cc2ccccc2)N=C(c2cnc3c(F)cccc3c2)O1` (centres unmarked) [E-13, 4-benzyl-2-(8-fluoro-3-quinolyl)-6,6-dimethyl-4,5-dihydro-1,3-oxazine] here?
Answer: ≥ 80%

Question: And the inhibition of growth at 20 ppm [2]?
Answer: ≥ 80%

Question: What about the inhibition of growth at 20 ppm [3] of the same compound?
Answer: ≥ 80%

Question: What about the inhibition of growth at 20 ppm [4] of the same compound?
Answer: ≥ 80%

Question: What about the inhibition of growth at 20 ppm [5] of the same compound?
Answer: ≥ 70%

Question: What about the inhibition of growth at 20 ppm [6] of the same compound?
Answer: ≥ 80%

Question: What about the inhibition of growth at 20 ppm [7] of the same compound?
Answer: ≥ 80%

Question: And the melting point?
Answer: 90 to 92 °C

Question: Which inhibition of growth at 20 ppm [1] does the source give for `Cc1nc2c(F)cccc2cc1C1=NC(C)(Cc2ccccc2)CC(C)(C)O1` (centres unmarked) [E-16, 4-benzyl-2-(8-fluoro-2-methyl-3-quinolyl)-4,6,6-trimethyl-5H-1,3-oxazine] here?
Answer: ≥ 80%

Question: What about the inhibition of growth at 20 ppm [2] of the same compound?
Answer: ≥ 80%

Question: And the inhibition of growth at 20 ppm [3]?
Answer: ≥ 80%

Question: What about the inhibition of growth at 20 ppm [4] of the same compound?
Answer: ≥ 80%

Question: What about the inhibition of growth at 20 ppm [5] of the same compound?
Answer: ≥ 70%

Question: What about the inhibition of growth at 20 ppm [6] of the same compound?
Answer: ≥ 80%

Question: What about the inhibition of growth at 20 ppm [7] of the same compound?
Answer: ≥ 80%

Question: What does the source list for `CC1(Cc2ccccc2)CC(C)(C)OC(c2cnc3c(F)cccc3c2)=N1` (centres unmarked) [E-17, 4-benzyl-2-(8-fluoro-3-quinolyl)-4,6,6-trimethyl-5H-1,3-oxazine]?
Answer: inhibition of growth at 20 ppm [1]: ≥ 80%; inhibition of growth at 20 ppm [2]: ≥ 80%; inhibition of growth at 20 ppm [3]: ≥ 80%; inhibition of growth at 20 ppm [4]: ≥ 80%; inhibition of growth at 20 ppm [5]: ≥ 70%; inhibition of growth at 20 ppm [6]: ≥ 80%; melting point: 115 to 116 °C

Question: For `CC1(C)CC(Cc2ccc(F)cc2)N=C(c2cnc3c(F)c(F)ccc3c2)O1` (centres unmarked) [E-18, 2-(7,8-difluoro-3-quinolyl)-4-[(4-fluorophenyl)methyl]-6,6-dimethyl-4,5-dihydro-1,3-oxazine], which inhibition of growth at 20 ppm [3] is on record?
Answer: ≥ 80%

Question: And the inhibition of growth at 20 ppm [4]?
Answer: ≥ 80%

Question: What about the inhibition of growth at 20 ppm [5] of the same compound?
Answer: ≥ 70%

Question: And the inhibition of growth at 20 ppm [6]?
Answer: ≥ 80%

Question: What about the inhibition of growth at 20 ppm [7] of the same compound?
Answer: ≥ 80%

Question: And the melting point?
Answer: 118 to 121 °C

Question: Which inhibition of growth at 20 ppm [1] does the source give for `CC1(C)CC(Cc2cccc(F)c2)N=C(c2cnc3c(F)c(F)ccc3c2)O1` (centres unmarked) [E-19, 2-(7,8-difluoro-3-quinolyl)-4-[(3-fluorophenyl)methyl]-6,6-dimethyl-4,5-dihydro-1,3-oxazine] here?
Answer: ≥ 80%

Question: And the inhibition of growth at 20 ppm [3]?
Answer: ≥ 80%

Question: And the inhibition of growth at 20 ppm [4]?
Answer: ≥ 80%

Question: What about the inhibition of growth at 20 ppm [5] of the same compound?
Answer: ≥ 70%

Question: What about the pest or weed control at 60 ppm [8] of the same compound?
Answer: ≥ 80%

Question: What about the inhibition of growth at 20 ppm [6] of the same compound?
Answer: ≥ 80%

Question: What about the inhibition of growth at 20 ppm [7] of the same compound?
Answer: ≥ 80%

Question: And the melting point?
Answer: 95 to 98 °C

Question: Which inhibition of growth at 20 ppm [1] does the source give for `CC1(C)CC(Cc2ccccc2F)N=C(c2cnc3c(F)c(F)ccc3c2)O1` (centres unmarked) [E-20, 2-(7,8-difluoro-3-quinolyl)-4-[(2-fluorophenyl)methyl]-6,6-dimethyl-4,5-dihydro-1,3-oxazine] here?
Answer: ≥ 80%

Question: What about the inhibition of growth at 20 ppm [3] of the same compound?
Answer: ≥ 80%

Question: And the inhibition of growth at 20 ppm [4]?
Answer: ≥ 80%

Question: And the pest or weed control at 60 ppm [8]?
Answer: ≥ 80%

Question: And the inhibition of growth at 20 ppm [6]?
Answer: ≥ 80%

Question: For `Fc1ccc2cc(C3=NC(Cc4ccccc4)CC4(CCCC4)O3)cnc2c1F` (centres unmarked) [E-21, 9-benzyl-7-(7,8-difluoro-3-quinolyl)-6-oxa-8-azaspiro[4.5]dec-7-ene], which inhibition of growth at 20 ppm [3] is on record?
Answer: ≥ 80%

Question: And the inhibition of growth at 20 ppm [4]?
Answer: ≥ 80%

Question: What about the inhibition of growth at 20 ppm [5] of the same compound?
Answer: ≥ 70%

Question: What about the pest or weed control at 60 ppm [8] of the same compound?
Answer: ≥ 80%

Question: And the inhibition of growth at 20 ppm [6]?
Answer: ≥ 80%

Question: What does the source list for `Cc1nc2c(F)c(F)ccc2cc1C1=NC(Cc2ccccc2)CC(C)(C)O1` (centres unmarked) [E-22, 4-benzyl-2-(7,8-difluoro-2-methyl-3-quinolyl)-6,6-dimethyl-4,5-dihydro-1,3-oxazine]?
Answer: inhibition of growth at 20 ppm [1]: ≥ 80%; inhibition of growth at 20 ppm [4]: ≥ 80%; inhibition of growth at 20 ppm [5]: ≥ 70%; pest or weed control at 60 ppm [8]: ≥ 80%; inhibition of growth at 20 ppm [6]: ≥ 80%; inhibition of growth at 20 ppm [7]: ≥ 80%

Question: With `Fc1ccc2cc(C3=NC(Cc4ccccc4)CC4(CCC4)O3)cnc2c1F` (centres unmarked) [E-23, 8-benzyl-6-(7,8-difluoro-3-quinolyl)-5-oxa-7-azaspiro[3.5]non-6-ene] as the compound, how does the inhibition of growth at 20 ppm [4] read?
Answer: ≥ 80%

Question: What about the pest or weed control at 60 ppm [8] of the same compound?
Answer: ≥ 80%

Question: What about the inhibition of growth at 20 ppm [6] of the same compound?
Answer: ≥ 80%

Question: What about the melting point of the same compound?
Answer: 159 to 162 °C

Question: For `Cc1nc2c(F)c(F)ccc2cc1C1=NC(Cc2ccc(F)cc2)CC(C)(C)O1` (centres unmarked) [E-24, 2-(7,8-difluoro-2-methyl-3-quinolyl)-4-[(4-fluorophenyl)methyl]-6,6-dimethyl-4,5-dihydro-1,3-oxazine], which inhibition of growth at 20 ppm [4] is on record?
Answer: ≥ 80%

Question: And the inhibition of growth at 20 ppm [5]?
Answer: ≥ 70%

Question: And the pest or weed control at 60 ppm [8]?
Answer: ≥ 80%

Question: And the inhibition of growth at 20 ppm [6]?
Answer: ≥ 80%

Question: And the melting point?
Answer: 128 to 132 °C

Question: Which results are given for `CC1(Cc2ccccc2)CC(C)(C)OC(c2cnc3c(F)cccc3c2)=N1` (centres unmarked) [F-2]?
Answer: inhibition of growth at 20 ppm [7]: ≥ 80%; melting point: 111 to 112 °C

Question: With `CC1(C)CC(Cc2ccccc2)N=C(c2cnc3c(F)c(F)ccc3c2)O1` (centres unmarked) [F-5] as the compound, how does the inhibition of growth at 20 ppm [1] read?
Answer: ≥ 80%

Question: And the inhibition of growth at 20 ppm [3]?
Answer: ≥ 80%

Question: What about the inhibition of growth at 20 ppm [4] of the same compound?
Answer: ≥ 80%

Question: And the inhibition of growth at 20 ppm [5]?
Answer: ≥ 70%

Question: What about the pest or weed control at 60 ppm [8] of the same compound?
Answer: ≥ 80%

Question: And the inhibition of growth at 20 ppm [6]?
Answer: ≥ 80%

Question: What about the inhibition of growth at 20 ppm [7] of the same compound?
Answer: ≥ 80%

Question: With `CC1(C)CC(Cc2ccc(F)cc2)N=C(c2cnc3c(F)c(F)ccc3c2)O1` (centres unmarked) [F-7] as the compound, how does the inhibition of growth at 20 ppm [1] read?
Answer: ≥ 80%

Question: What about the pest or weed control at 60 ppm [8] of the same compound?
Answer: ≥ 80%

Question: What about the melting point of the same compound?
Answer: 117 to 119 °C
